# Assays:
# HCT116 = assay: MTS cytotoxicity assay, 72 h; type: cell-based; details: Homo sapiens, HCT-116, 72 h, read-out: IC50 HCT116
# U2OS = assay: MTS cytotoxicity assay, 72 h; type: cell-based, human; details: Homo sapiens, U2OS, 72 h, read-out: IC50 U2OS, MTS assay, 3-day incubation, mean ± SD
# CCRF-CEM lymphoblasts = assay: FACS analysis of cell cycle, apoptosis, mitosis and polyploidy; details: for Mitosis: phospho-Histone (Ser10); for Apoptosis: sub-G0/G1 DNA content, % of positive cells
# panel of cell lines [1] = assay: cells; details: read-out: IC50 values, cancer cell lines
# HCT116p53–/– = assay: MTS cytotoxicity assay, 72 h; type: cell-based; details: read-out: IC50 HCT116p53–/–
# panel of cell lines [2] = system: panel of cell lines
# MRC-5 = assay: MTS cytotoxicity assay, 72 h; type: cell-based; details: Homo sapiens, MRC5, 72 h, read-out: IC50 MRC-5
# CCRF-CEM = assay: MTS cytotoxicity assay, 72 h; type: cell-based; details: Homo sapiens, CCRF-CEM, 72 h, read-out: IC50 CCRF-CEM, MTS assay, 3-day incubation, mean ± SD of 3 experiments
# CEM-DNR = assay: MTS cytotoxicity assay, 72 h; type: cell-based; details: Homo sapiens, read-out: IC50 CEM-DNR
# K562 = assay: MTS cytotoxicity assay, 72 h; type: cell-based; details: Homo sapiens, K562, 72 h, read-out: IC50 K562
# HUVEC = assay: MTS cytotoxicity assay, 72 h; type: cell-based; details: Homo sapiens, 3-day incubation, mean ± SD
# BJ = assay: MTS cytotoxicity assay, 72 h; type: cell-based; details: Homo sapiens, read-out: IC50 BJ
# K562-TAX = assay: MTS cytotoxicity assay, 72 h; type: cell-based; details: read-out: IC50 K562-TAX
compound,measurement,setting,value
COc1cc2c(c(OC)c1OC)-c1ccc(N(C)C(=O)CCC3=C4C(C)=CC(C)=[N+]4[B-](F)(F)n4c(C)cc(C)c43)c(=O)cc1[C@@H](NC(C)=O)CC2 [CB12],IC50,HCT116,8.09 ± 0.268 µM
same,IC50,U2OS,9.12 ± 0.174 µM
same,G0/G1,"CCRF-CEM lymphoblasts; 1×IC50, 24 h",32.27%
same,G2/M,"CCRF-CEM lymphoblasts; 1×IC50, 24 h",26.62%
same,Polyploid cells,"CCRF-CEM lymphoblasts; 1×IC50, 24 h",18.91%
same,S,"CCRF-CEM lymphoblasts; 1×IC50, 24 h",41.12%
same,Mitosis,"CCRF-CEM lymphoblasts; 1×IC50, 24 h",9.86%
same,Apoptosis,"CCRF-CEM lymphoblasts; 1×IC50, 24 h",4.12%
same,G0/G1,"CCRF-CEM lymphoblasts; 5×IC50, 24 h",21.05%
same,G2/M,"CCRF-CEM lymphoblasts; 5×IC50, 24 h",53.56%
same,Polyploid cells,"CCRF-CEM lymphoblasts; 5×IC50, 24 h",23.39%
same,S,"CCRF-CEM lymphoblasts; 5×IC50, 24 h",25.39%
same,Mitosis,"CCRF-CEM lymphoblasts; 5×IC50, 24 h",23.11%
same,Apoptosis,"CCRF-CEM lymphoblasts; 5×IC50, 24 h",10.47%
same,IC50,panel of cell lines [1],2.5 to 9 µM
same,IC50,HCT116p53–/–,8.35 ± 0.549 µM
same,RI (resistance index),panel of cell lines [2],4.50
same,SI (selectivity index),panel of cell lines [2],>7.07
same,IC50,MRC-5,> 50 µM
same,IC50,CCRF-CEM,5.54 ± 0.475 µM
same,IC50,CEM-DNR,36 ± 2.04 µM
same,IC50,K562,4.25 ± 0.89 µM
same,IC50,HUVEC,8.24 ± 0.77 µM
same,IC50,BJ,> 50 µM
same,IC50,K562-TAX,8.07 ± 0.706 µM
